From PubChem BioAssay AID1918993 (Molecular Pharmacology Branch, DTP, NCI, 2023)

Tested on: 233499-124-R-J3-PDC complex spheroid growth
Assay: Anticancer human tumor 233499-124-R-J3-PDC patient-derived colon adenocarcinoma cell line growth inhibition [AhR]
Details: for IC50: curve of first compound; for viability, T/C: stronger effect = lower value
Outline: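 Complex tumor spheroids co-cultured with HUVEC and human MSC stroma; AhR antagonists tested in combination with standard-of-care and investigational agents. Top concentration at or near clinical Cmax (else 10 microM), half-log dilutions; growth expressed as percent test/control.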
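Note: spheroids exposed to agents for seven days before reading.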

CC(C)c1c(-c2ccccc2)nc2c(C#N)c[nH]n2c1=O + Cc1cncc(-c2nc(NCCc3c[nH]c4ccccc34)c3ncn(C(C)C)c3n2)c1
IC50 (second compound 0.1 µM): > 10 µM
IC50 (second compound 0.316 µM): > 10 µM
IC50 (second compound 1 µM): > 10 µM
IC50 (second compound 3.16 µM): > 10 µM
IC50 (second compound 10 µM): < 0.0316 µM
viability, T/C (second compound 0.1 µM, first compound 0.0316 µM): 88.8%
viability, T/C (second compound 0.1 µM, first compound 0.1 µM): 100%
viability, T/C (second compound 0.1 µM, first compound 0.316 µM): 96.5%
viability, T/C (second compound 0.1 µM, first compound 1 µM): 108%
viability, T/C (second compound 0.1 µM, first compound 3.16 µM): 101%
viability, T/C (second compound 0.1 µM, first compound 10 µM): 108%
viability, T/C (second compound 0.316 µM, first compound 0.0316 µM): 89.9%
viability, T/C (second compound 0.316 µM, first compound 0.1 µM): 88.9%
viability, T/C (second compound 0.316 µM, first compound 0.316 µM): 87.4%
viability, T/C (second compound 0.316 µM, first compound 1 µM): 86.3%
viability, T/C (second compound 0.316 µM, first compound 3.16 µM): 86.2%
viability, T/C (second compound 0.316 µM, first compound 10 µM): 85.2%
viability, T/C (second compound 1 µM, first compound 0.0316 µM): 84.5%
viability, T/C (second compound 1 µM, first compound 0.1 µM): 79.2%
viability, T/C (second compound 1 µM, first compound 0.316 µM): 71.5%
viability, T/C (second compound 1 µM, first compound 1 µM): 73.8%
viability, T/C (second compound 1 µM, first compound 3.16 µM): 79.2%
viability, T/C (second compound 1 µM, first compound 10 µM): 84%
viability, T/C (second compound 3.16 µM, first compound 0.0316 µM): 72.5%
viability, T/C (second compound 3.16 µM, first compound 0.1 µM): 86.5%
viability, T/C (second compound 3.16 µM, first compound 0.316 µM): 74.6%
viability, T/C (second compound 3.16 µM, first compound 1 µM): 60.9%
viability, T/C (second compound 3.16 µM, first compound 3.16 µM): 73.3%
viability, T/C (second compound 3.16 µM, first compound 10 µM): 77.2%
viability, T/C (second compound 10 µM, first compound 0.0316 µM): 1.69%
viability, T/C (second compound 10 µM, first compound 0.1 µM): 2.34%
viability, T/C (second compound 10 µM, first compound 0.316 µM): 4.08%
viability, T/C (second compound 10 µM, first compound 1 µM): 2.26%
viability, T/C (second compound 10 µM, first compound 3.16 µM): 2.36%
viability, T/C (second compound 10 µM, first compound 10 µM): 2.85%
